{
  "source": "patent US20060165671A1",
  "about": "“Novel nutraceutical compositions comprising epigallocatechin gallate” (priority 2002, published 2006)",
  "origin": "cited, not measured here",
  "key": {"[1]": {"settings": "patients with type 2"}, "[2]": {"settings": "glucose intolerant and non-insulin dependent diabetic animals"}, "[3]": {"system": "muscle and adipose cells in culture"}, "[4]": {"settings": "after CoQ10 supplementation, several studies"}, "pre-adipocyte cells": {"system": "pre-adipocyte cells", "settings": "compared to the specific PPAR-γ agonist ciglitazone"}, "rat primary hepatocytes": {"system": "rat primary hepatocytes", "settings": "concentrations from about 10 to about 100 μM"}},
  "data": [
    {"compound": "1,2-dithiolane-3-pentaenoic acid [Lipoic acid]", "values": [
      {"measurement": "glucose disposal", "setting": "[1]", "value": "improves glucose disposal"},
      {"measurement": "basal and insulin-stimulated glucose uptake by skeletal muscles", "setting": "[2]", "value": "raised"},
      {"measurement": "glucose transport", "setting": "[3]", "value": "stimulates glucose transport"}
    ]},
    {"compound": "COC1=C(OC)C(=O)C(C/C=C(\\C)CC/C=C(\\C)CC/C=C(\\C)CC/C=C(\\C)CC/C=C(\\C)CC/C=C(\\C)CC/C=C(\\C)CC/C=C(\\C)CC/C=C(\\C)CCC=C(C)C)=C(C)C1=O", "note": "[CoQ10, 6-Decaprenyl-2,3-dimethoxy-5-methyl-1,4-benzoquinone]", "values": [
      {"measurement": "LDL oxidation", "setting": "[4]", "value": "reduced"}
    ]},
    {"compound": "CC(C)CCCC(C)CCCC(C)CCCC(C)CC(=O)O", "note": "(stereo not drawn) [Phytanic acid, 3,7,11,15-tetramethylhexadecanoic acid]", "values": [
      {"measurement": "differentiation of pre-adipocyte cells into mature adipocytes", "setting": "pre-adipocyte cells", "value": "only minor effects"},
      {"measurement": "uptake of glucose", "setting": "rat primary hepatocytes", "value": "enhances uptake of glucose"}
    ]}
  ]
}
